In paper PMC7413254 (Nature Communications, 2020):
Values joined by “and” are separate entries in the source; they are usually repeats but may differ in a detail not shown here. Identical values can stand only once. Like-named read-outs stand apart in the source and are kept apart here.

Columns and labels:
non-expressing oocytes [1] = assay: cells; assay type: cell-based, Xenopus laevis; settings: Xenopus laevis, Oocyte
Summary of the method: (§1)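 Assay buffer ND96 (10 mM MES, 10 mM Tris-base) held at pH 5.5 to mimic vacuole lumen; uptake measured inward from this acidic medium over 1.5 h at 27.5 °C.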

PfCRT^3D7 [2] = target: T1, PfCRT^3D7 (Plasmodium falciparum, UniProt Q8IBZ9); assay: cell-based; assay type: cell-based
Summary of the method: as §1

PfCRT^3D7 [3] = target: T1, PfCRT^3D7; assay: cell-based; assay type: cell-based; remark: listed apart in the source
Summary of the method: (§2)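 Transport measured in Xenopus oocytes expressing the transporters, 1.5 h at 27.5 °C in ND96 pH 5.5 unless noted. For trans-stimulation, VF-6 injected in 25 nL ND96 at pH 5.0–7.0 or Na^+-free (choline) buffer; intracellular levels based on ~400 nL oocyte volume. Ten oocytes per treatment, ≥4 experiments.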

PfNT1 = target: T2, PfNT1 (Plasmodium falciparum, UniProt Q8IDM6); assay: cell-based; assay type: cell-based; settings: […]
T2 construct: expressed in transfected cells; host or cells: Xenopus laevis oocytes (stage V-VI), cRNA-injected
Summary of the method: as §2

PfCRT^Dd2 [4] = target: T3, PfCRT^Dd2 (Plasmodium falciparum, UniProt Q9N623, A220S/I356T/K76T/M74I/N326S/N75E/Q271E/R371I); assay: cell-based; assay type: cell-based; settings: […]; for activity at 45000 µM: [test solute]i = 45 mM (30 mM for some solutes due to solubility)
Summary of the method: as §2

PfCRT^Ecu1110 [5] = target: T4, PfCRT^Ecu1110 (Plasmodium falciparum, UniProt Q9N623, A220S/I356L/K76T/N326D); assay: cell-based; assay type: cell-based; settings: […]
Summary of the method: as §2

PfCRT [6] = assay: Test of solutes as potential co-substrates for influx of VF-6 via PfCRT into the oocyte; assay type: cell-based, Plasmodium falciparum; parameters: key: X: Compounds that have been tested as potential co-substrates but are not required for influx of VF-6 via PfCRT into the oocyte; settings: X = tested
PfCRT [7] = assay: Influx of VF-6 via PfCRT into the oocyte, solutes tested as potential co-substrates; assay type: cell-based, Plasmodium falciparum; parameters: key: X: Compounds that have been tested as potential co-substrates but are not required for influx of VF-6 via PfCRT into the oocyte; settings: X marks the solute
PfCRT^Dd2 [8] = target: T3, PfCRT^Dd2; assay: [3H]CQ uptake into Xenopus oocytes, cis-inhibition by unlabelled solute; assay type: cell-based
Summary of the method: as §1

PfCRT^Ecu1110 [9] = target: T4, PfCRT^Ecu1110; assay: as above; assay type: cell-based
Summary of the method: as §1

non-expressing oocytes [10] = assay type: cell-based, Xenopus laevis
Summary of the method: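 Oocytes (ten per treatment, ≥4 independent frogs/days) were preloaded by injecting VF-6 in 25 nL ND96 at pH 5.0, 5.5, 6.0 or 7.0, or Na^+-free choline buffer, then uptake run 1.5 h, 27.5 °C, ND96 pH 5.5 by default. Internal concentrations assumed ~400 nL oocyte volume.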

[11] = read-out: Uptake of [3H]CQ (% PfCRTDd2 control), cis-inhibition, non-expressing oocytes, SEM
[12] = read-out: Uptake of [3H]CQ (% non-expressing oocyte control), cis-inhibition
[13] = read-out: Uptake of [3H]CQ (% PfCRT3D7 control), cis-inhibition
[14] = read-out: Uptake of [3H]CQ (% PfCRTDd2 control), cis-inhibition, PfCRT3D7, SEM
[15] = read-out: PfCRT-mediated [3H]CQ transport, trans-stimulation (% PfCRT3D7 control)
[16] = read-out: Uptake of [3H]CQ (% PfCRT3D7 control), trans-stimulation
[17] = read-out: Uptake of [3H]CQ (% PfCRTDd2 control), trans-stimulation, PfCRT3D7, SEM
[18] = read-out: Uptake of [3H]CQ (% PfCRTDd2 control), trans-stimulation, PfNT1, SEM
[19] = read-out: Uptake of [3H]CQ (% PfNT1 control), trans-stimulation
[20] = read-out: PfCRT-mediated [3H]CQ transport, cis-inhibition (% PfCRTDd2 control)
[21] = read-out: Uptake of [3H]CQ (% PfCRTDd2 control), cis-inhibition, PfCRTDd2, SEM
[22] = read-out: PfCRT-mediated [3H]CQ transport, cis-inhibition (% PfCRTEcu1110 control)
[23] = read-out: Uptake of [3H]CQ (% PfCRTDd2 control), cis-inhibition, PfCRTEcu1110, SEM
[24] = read-out: Uptake of [3H]CQ (% PfCRTEcu1110 control), cis-inhibition
[25] = read-out: [3H]CQ transport (% PfCRTEcu1110 control), cis-inhibition, PfCRTEcu1110, SEM

T1 sequence (Q8IBZ9 59-398): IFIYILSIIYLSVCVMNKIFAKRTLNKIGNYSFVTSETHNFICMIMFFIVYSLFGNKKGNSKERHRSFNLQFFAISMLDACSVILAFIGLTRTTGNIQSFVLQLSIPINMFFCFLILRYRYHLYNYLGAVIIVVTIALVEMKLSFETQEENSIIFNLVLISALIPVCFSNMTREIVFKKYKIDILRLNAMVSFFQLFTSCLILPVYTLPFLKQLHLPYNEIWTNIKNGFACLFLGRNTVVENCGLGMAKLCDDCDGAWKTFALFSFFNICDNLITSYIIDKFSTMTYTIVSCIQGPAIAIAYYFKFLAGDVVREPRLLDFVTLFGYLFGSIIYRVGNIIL
T4 sequence (Q9N623 whole entry A220S/I356L/K76T/N326D): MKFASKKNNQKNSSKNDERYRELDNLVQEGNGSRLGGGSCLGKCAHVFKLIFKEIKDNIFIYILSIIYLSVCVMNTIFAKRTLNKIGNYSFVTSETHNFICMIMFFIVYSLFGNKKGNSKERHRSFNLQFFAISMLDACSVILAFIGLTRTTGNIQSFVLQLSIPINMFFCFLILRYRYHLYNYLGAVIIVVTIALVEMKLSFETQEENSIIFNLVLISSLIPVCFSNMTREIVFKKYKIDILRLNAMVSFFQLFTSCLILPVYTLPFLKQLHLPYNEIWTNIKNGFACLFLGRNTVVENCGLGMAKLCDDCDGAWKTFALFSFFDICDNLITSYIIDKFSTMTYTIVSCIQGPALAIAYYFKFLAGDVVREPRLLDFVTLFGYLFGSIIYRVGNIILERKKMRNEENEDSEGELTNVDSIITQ
T2 sequence (Q8IDM6 whole entry): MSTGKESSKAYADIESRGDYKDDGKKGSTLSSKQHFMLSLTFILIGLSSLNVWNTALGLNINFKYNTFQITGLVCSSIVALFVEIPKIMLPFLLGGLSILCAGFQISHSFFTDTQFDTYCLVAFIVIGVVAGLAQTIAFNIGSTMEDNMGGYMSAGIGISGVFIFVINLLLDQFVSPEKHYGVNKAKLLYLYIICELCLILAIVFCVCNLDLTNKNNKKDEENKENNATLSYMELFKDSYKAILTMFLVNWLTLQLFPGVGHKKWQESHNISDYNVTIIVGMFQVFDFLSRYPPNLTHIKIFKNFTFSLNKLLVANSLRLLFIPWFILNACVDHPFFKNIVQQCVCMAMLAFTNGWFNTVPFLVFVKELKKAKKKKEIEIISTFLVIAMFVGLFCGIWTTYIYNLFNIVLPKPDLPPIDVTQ
T3 sequence (Q9N623 whole entry A220S/I356T/K76T/M74I/N326S/N75E/Q271E/R371I): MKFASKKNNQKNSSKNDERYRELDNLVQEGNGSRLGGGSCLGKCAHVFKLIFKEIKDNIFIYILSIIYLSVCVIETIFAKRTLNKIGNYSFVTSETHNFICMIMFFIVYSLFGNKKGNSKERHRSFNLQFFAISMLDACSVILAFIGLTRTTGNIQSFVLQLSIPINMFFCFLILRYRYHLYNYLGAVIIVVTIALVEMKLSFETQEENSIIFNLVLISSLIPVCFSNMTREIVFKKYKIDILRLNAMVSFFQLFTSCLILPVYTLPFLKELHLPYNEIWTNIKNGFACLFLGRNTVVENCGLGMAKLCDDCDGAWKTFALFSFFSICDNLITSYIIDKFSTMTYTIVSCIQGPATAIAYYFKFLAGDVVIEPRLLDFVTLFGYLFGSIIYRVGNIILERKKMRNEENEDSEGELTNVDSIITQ

N[C@@H](Cc1ccc(O)cc1)C(=O)O [L-tyrosine]
inhibition at 500 µM (non-expressing oocytes [1]; [11]): 2.5 ± 0.03%
inhibition at 1000 µM (non-expressing oocytes [1]; [11]): 4.2 ± 0.03%
inhibition at 2000 µM (non-expressing oocytes [1]; [11]): 2.9 ± 0.04%
inhibition at 500 µM (non-expressing oocytes [1]; [12]): 96 ± 4.2%
inhibition at 1000 µM (non-expressing oocytes [1]; [12]): 99 ± 5.3%
inhibition at 2000 µM (non-expressing oocytes [1]; [12]): 101 ± 3.9%
inhibition at 500 µM (PfCRT^3D7 [2]; [13]): 99 ± 4.7%
inhibition at 1000 µM (PfCRT^3D7 [2]; [13]): 101 ± 3.8%
inhibition at 2000 µM (PfCRT^3D7 [2]; [13]): 99 ± 4.7%
inhibition at 500 µM (PfCRT^3D7 [2]; [14]): 2.8 ± 0.07%
inhibition at 1000 µM (PfCRT^3D7 [2]; [14]): 2.5 ± 0.04%
inhibition at 2000 µM (PfCRT^3D7 [2]; [14]): 3.1 ± 0.03%
[3H]CQ transport (% PfCRT3D7 control), trans-stimulation, PfCRT3D7 (PfCRT^3D7 [3]; SEM): 0.3 ± 0.04 % PfCRT3D7 control
activity at 5000 µM (PfCRT^3D7 [3]; [15]): 97 ± 3.4%
activity at 45000 µM (PfCRT^3D7 [3]; [15]): 98 ± 2.2%
activity at 5000 µM (PfCRT^3D7 [3]; [16]): 99 ± 2.2%
activity at 45000 µM (PfCRT^3D7 [3]; [16]): 100 ± 2.4%
activity at 5000 µM (PfCRT^3D7 [3]; [17]): 3.3 ± 0.04%
activity at 45000 µM (PfCRT^3D7 [3]; [17]): 3.3 ± 0.01%
activity at 5000 µM (PfNT1; [18]): 2.2 ± 0.02%
activity at 45000 µM (PfNT1; [18]): 2.2 ± 0.02%
activity at 5000 µM (PfNT1; [19]): 100 ± 3.7%
activity at 45000 µM (PfNT1; [19]): 99 ± 2.2%
activity at 5000 µM (PfCRT^Dd2 [4]; pH 5.5, read-out: PfCRT-mediated [3H]CQ transport, trans-stimulation (% PfCRTDd2 control), [test solute]i = 5 mM (intracellular), PfCRTDd2 oocytes, normalised to oocyte type control): 99 ± 2.6%
activity at 5000 µM (PfCRT^Dd2 [4]; pH 5.5, read-out: Uptake of [3H]CQ (% PfCRTDd2 control), trans-stimulation, PfCRTDd2, total [3H]CQ transport, [test solute]i = 5 mM (intracellular), mean ± SEM, SEM): 101 ± 3.3%
activity at 5000 µM (PfCRT^Dd2 [4]; pH 5.5, read-out: Uptake of [3H]CQ (% PfCRTDd2 control), trans-stimulation, PfCRTDd2 oocytes, [test solute]i = 5 mM, total [3H]CQ transport, normalised to the oocyte type control): 101 ± 3.3%
activity at 45000 µM (PfCRT^Dd2 [4]; pH 5.5, read-out: Uptake of [3H]CQ (% PfCRTDd2 control), trans-stimulation, PfCRTDd2 oocytes, total [3H]CQ transport, normalised to the oocyte type control): 96 ± 2.4%
activity at 5000 µM (PfCRT^Dd2 [4]; pH 5.5, read-out: [3H]CQ transport (% PfCRTDd2 control), trans-stimulation, PfCRTDd2, trans-stimulation, [test solute]i = 5 mM (injected), PfCRT-mediated component (background subtracted), mean ± SEM, SEM): 99 ± 2.6%
activity at 45000 µM (PfCRT^Dd2 [4]; pH 5.5, read-out: [3H]CQ transport (% PfCRTDd2 control), trans-stimulation, PfCRTDd2, trans-stimulation, PfCRT-mediated component (background subtracted), mean ± SEM, SEM): 94 ± 3.3%
activity at 5000 µM (PfCRT^Ecu1110 [5]; pH 5.5, read-out: PfCRT-mediated [3H]CQ transport, trans-stimulation (% PfCRTEcu1110 control), [test solute]i = 5 mM (intracellular), PfCRTEcu1110 oocytes, normalised to oocyte type control): 97 ± 1.8%
activity at 5000 µM (PfCRT^Ecu1110 [5]; pH 5.5, read-out: Uptake of [3H]CQ (% PfCRTEcu1110 control), trans-stimulation, PfCRTEcu1110 oocytes, [test solute]i = 5 mM, total [3H]CQ transport, normalised to the oocyte type control): 99 ± 2.6%
activity at 45000 µM (PfCRT^Ecu1110 [5]; pH 5.5, read-out: Uptake of [3H]CQ (% PfCRTEcu1110 control), trans-stimulation, PfCRTEcu1110 oocytes, [test solute]i = 45 mM (30 mM for some solutes due to solubility), total [3H]CQ transport, normalised to the oocyte type control): 100 ± 3.1%
activity at 5000 µM (PfCRT^Ecu1110 [5]; read-out: Uptake of [3H]CQ (% PfCRTDd2 control), trans-stimulation, PfCRTEcu1110, total [3H]CQ transport, [test solute]i = 5 mM (intracellular), mean ± SEM, SEM): 35 ± 2.1%
activity at 45000 µM (PfCRT^Ecu1110 [5]; read-out: Uptake of [3H]CQ (% PfCRTDd2 control), trans-stimulation, PfCRTEcu1110, total [3H]CQ transport, [test solute]i = 45 mM (intracellular; 30 mM for some solutes due to solubility), mean ± SEM, SEM): 36 ± 1.8%
Tested as potential co-substrate but not required for influx of VF-6 via PfCRT into the oocyte (PfCRT [6]): X
Compounds that have been tested as potential co-substrates but are not required for influx of VF-6 via PfCRT into the oocyte (PfCRT [7]): X
inhibition at 500 µM (PfCRT^Dd2 [8]; [20]): 94 ± 4.6%
inhibition at 2000 µM (PfCRT^Dd2 [8]; [20]): 97 ± 3.5%
inhibition at 500 µM (PfCRT^Dd2 [8]; [21]): 96 ± 3.2%
inhibition at 1000 µM (PfCRT^Dd2 [8]; [21]): 98 ± 2.3%
inhibition at 2000 µM (PfCRT^Dd2 [8]; [21]): 99 ± 1.4%
inhibition at 500 µM (PfCRT^Ecu1110 [9]; [22]): 96 ± 5.3%
inhibition at 2000 µM (PfCRT^Ecu1110 [9]; [22]): 95 ± 3.4%
inhibition at 500 µM (PfCRT^Ecu1110 [9]; [23]): 32 ± 1%
inhibition at 1000 µM (PfCRT^Ecu1110 [9]; [23]): 32 ± 1.1%
inhibition at 2000 µM (PfCRT^Ecu1110 [9]; [23]): 32 ± 1.7%
inhibition at 500 µM (PfCRT^Ecu1110 [9]; [24]): 99 ± 1.4%
inhibition at 1000 µM (PfCRT^Ecu1110 [9]; [24]): 101 ± 1.4%
inhibition at 2000 µM (PfCRT^Ecu1110 [9]; [24]): 97 ± 1.5%
inhibition at 500 µM (PfCRT^Ecu1110 [9]; [25]): 29 ± 0.7%
inhibition at 1000 µM (PfCRT^Ecu1110 [9]; [25]): 29 ± 1.5%
inhibition at 2000 µM (PfCRT^Ecu1110 [9]; [25]): 29 ± 0.5%
Uptake of [3H]CQ (% non-expressing oocyte control), trans-stimulation (non-expressing oocytes [10]): 99 ± 3.3 % non-expressing oocyte control and 98 ± 4.2 % non-expressing oocyte control
Uptake of [3H]CQ (% PfCRTDd2 control), trans-stimulation, non-expressing oocytes (non-expressing oocytes [10]; SEM): 2.4 ± 0.01 % PfCRTDd2 control and 2.5 ± 0.01 % PfCRTDd2 control
